Test results reported in patent US20260234150A1, “COMPOUND FOR INHIBITING NLRP3, PREPARATION METHOD, AND USE” (DOVETREE MEDICINES UNUS, INC., priority 2023, published 2026).
pIC50: −log10 of the molar value.

Legend:
[1] = test system: IL-1β secretion of THP-1 cells; assay: Effect of NLRP3 inhibitor on IL-1β secretion of THP-1 cells (AlphaLISA); format: cell-based; settings: Homo sapiens; PMA, LPS and Nigericin stimulated THP-1 cells, IL-1β in supernatant; read-out: IC50 (nM), THP-1 cells to detect NLRP3 inhibitors
Description: This experiment used the PerkinElmer AlphaLISA_human_IL1β kit (AL220 C/F). The detection buffer was RPMI-1640+10FBS. AlphaLISA Immunoassay Buffer, AlphaLISA Anti-IL1β Acceptor beads, Streptavidin (SA)-coated Donor beads, and Biotinylated Antibody Anti-IL1β were all included in the kit.
The density of THP1 cells was adjusted to 4×10^5 cells/mL, PMA (final concentration 50 nM) was added, inoculated into 96-well flat-bottom plates at 200 μL/well, and stimulated overnight at 37° C., 5% CO2 (try to <16h). The next day, the supernatant was discarded, and the flat washed twice with DPBS ([…]/time). Then LPS solution (final concentration of 100 ng/ml) was added at 198 μL/well, incubated at 37° C., 5% CO2 for 3h. 1 μL of the corresponding concentration of compounds was added to each well according to the experimental MAP, incubated at 37° C., 5% CO2 for 1 h. 1 μL Nigericin (final concentration of […]) was added to each well, incubated overnight at 5% CO2 (>18h). On the third day, 5 μL of supernatant was taken, diluted 20 times, and the content of IL-Iβ in the supernatant was detected by Human Interleukin 1 beta (IL1β) Kit. Envision was used to read the AlphaLISA test value of Ex=680/[…]. GraphPad Prism 9.5.0 was used to analyze the data, and the IC50 value of the compound for IL-Iβ antagonism was fitted by four-parameter Logistic.

[2] = biological target: T1, His6-Flag-TEV-NLRP3 (134-1036) (Homo sapiens, UniProt Q96P20); assay: NLRP3 fluorescence polarization (FP) binding assay, competition with probe NP3-301; settings: competition with NP3-301 for binding to NLRP3 (134-1036), 30 nM protein
T1 construct: fused on or other part: N-terminal His6 tag, Flag tag and TEV cleavage site
Description: This experiment uses fluorescence polarization technology to detect and evaluate the binding assay.
The fluorescent probe used in this assay is the compound NP3-301 in the Journal of Molecular Biology (2021) 433, 167309, which was synthesized with reference to this literature.
His6-Flag-TEV-NLRP3 (134-1036) protein (SEQ NO. 1) was purchased from Kaihuiruizhi Biotech (Shanghai) Co., Ltd. (ChemPartner), and was customed for expression.
Prepare 1× assay buffer: 50 mM Hepes, pH 7.4, 150 mM NaCl, 2.5 mM MgCl2, 0.005% Tween-20, 1 mM TCEP, 100 μM ATP.
First, 2.5 μL of 4× compound solution was added to a black shallow 384-well plate (Greiner, 784076), the shallow well plate was sealed, and centrifuged at 1000 rpm for 1 min; then 2× NLPR3 protein solution (final concentration of 30 nM) was added, the shallow well plate was sealed, centrifuged at 1000 rpm for 1 min, and incubated at room temperature for 60 min. Finally, 2.5 μL of 4× NP3-301 (final concentration of 0.5 nM) was added, the shallow well plate was sealed, centrifuged at 1000 rpm for 1 min, and incubated at room temperature for 30 min. Envision was used to read the fluorescence polarization values of λex=485+20 nm and kem=535+25 nm. GraphPad Prism 9.5.0 was used to analyze the data, and the IC50 value of the competition between the compound and NP3-301 for binding to His6-Flag-TEV-NLRP3 (134-1036) was fitted by four-parameter logistic. The compounds of the present disclosure have good NLRP3 binding activity, and the test results of some representative compounds are shown in Table 1.

T1 sequence (Q96P20 134-1036 limits assumed): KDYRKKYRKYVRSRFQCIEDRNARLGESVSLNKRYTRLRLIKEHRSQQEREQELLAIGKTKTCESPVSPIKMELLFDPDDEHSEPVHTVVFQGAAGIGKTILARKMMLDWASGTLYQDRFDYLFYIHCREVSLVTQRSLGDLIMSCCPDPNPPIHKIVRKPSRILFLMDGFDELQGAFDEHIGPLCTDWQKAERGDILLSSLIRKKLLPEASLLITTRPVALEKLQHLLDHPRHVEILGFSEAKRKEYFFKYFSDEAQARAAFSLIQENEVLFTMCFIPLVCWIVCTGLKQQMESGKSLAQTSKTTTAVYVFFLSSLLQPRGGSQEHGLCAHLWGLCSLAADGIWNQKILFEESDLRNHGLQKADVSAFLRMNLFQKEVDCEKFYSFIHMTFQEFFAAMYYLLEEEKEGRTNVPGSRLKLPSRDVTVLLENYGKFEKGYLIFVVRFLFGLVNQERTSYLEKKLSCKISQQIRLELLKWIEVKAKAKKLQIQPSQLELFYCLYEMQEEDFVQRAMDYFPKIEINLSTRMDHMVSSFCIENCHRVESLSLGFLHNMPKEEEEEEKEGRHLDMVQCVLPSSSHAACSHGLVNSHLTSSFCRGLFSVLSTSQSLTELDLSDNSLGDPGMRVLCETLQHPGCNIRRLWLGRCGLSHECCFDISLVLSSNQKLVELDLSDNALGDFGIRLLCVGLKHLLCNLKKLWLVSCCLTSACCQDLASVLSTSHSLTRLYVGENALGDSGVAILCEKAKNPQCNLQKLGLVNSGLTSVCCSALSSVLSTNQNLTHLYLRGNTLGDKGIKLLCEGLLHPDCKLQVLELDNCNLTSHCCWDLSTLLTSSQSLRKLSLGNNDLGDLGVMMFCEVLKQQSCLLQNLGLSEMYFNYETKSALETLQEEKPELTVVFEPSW

| SMILES | IC50 [1] | pIC50 [2] |
| --- | --- | --- |
| Cc1cc(C(F)(F)F)cc(O)c1-c1ccn2nc(N3CCOCC3)nc2n1 [Compound 426] | < 50 nM | ≥ 7.00 |
| CCC(=O)N1CCOC[C@H]1CNc1nc2nc(-c3c(C)cc(C(F)(F)F)cc3O)ccc2o1 [Compound 250] | 100 to 500 nM | ≥ 7.00 |
| Cc1cc(C(F)(F)F)cc(O)c1-c1ccc2oc(NC[C@@H]3COCCN3C(=O)C(F)(F)F)nc2n1 [Compound 247] | 50 to 100 nM | ≥ 7.00 |
| CCN1CCC[C@@H](n2ccc3cc(-c4c(C)cc(C(F)(F)F)cc4O)nnc32)C1 [Compound 11-a] | < 50 nM | ≥ 7.00 |
| CCN1CCCC(n2ccc3cc(-c4c(C)cc(C(F)(F)F)cc4O)nnc32)C1 (stereo not drawn) [Compound 11] | < 50 nM | ≥ 7.00 |
| Oc1cc(Cl)cc(O)c1-c1ccc2oc(N3CCOCC3)nc2n1 [Compound 376] | < 50 nM | ≥ 7.00 |
| Cc1cc(C(F)(F)F)cc(O)c1-c1cc(C)n2nc(N3CCOCC3)nc2n1 [Compound 440] | 50 to 100 nM | ≥ 7.00 |
| CCS(=O)(=O)N1CCN(c2nc3nc(-c4c(C)cc(C(F)(F)F)cc4O)ccc3o2)C[C@@H]1C [Compound 394] | 50 to 100 nM | ≥ 7.00 |
| CCN1CCCC(N2CC(=O)Nc3cc(-c4c(C)cc(C(F)(F)F)cc4O)nnc32)C1 (stereo not drawn) [Compound 12] | 100 to 500 nM | ≥ 7.00 |
| Cc1cc(C(F)(F)F)cc(O)c1-c1ccn2nc(N[C@@H]3CCCN(C)C3)nc2n1 [Compound 444] | < 50 nM | ≥ 7.00 |
| Cc1cc(C(F)(F)F)cc(O)c1-c1ccc2[nH]c(CC(N)=O)nc2n1 [Compound 5] | 100 to 500 nM | ≥ 7.00 |
| Cc1cc(C(F)(F)F)cc(O)c1-c1ccc2oc(N[C@@H]3CCCN(C4CC4)C3)nc2n1 [Compound 399] | < 50 nM | ≥ 7.00 |
| Cc1cc(C(F)(F)F)cc(O)c1-c1ccc2nc(N3CCOCC3)nn2n1 [Compound 423] | 100 to 500 nM | ≥ 7.00 |
| Cc1cc(C(F)(F)F)cc(O)c1-c1cc(C)c2nc(N[C@@H]3CCCN(C)C3)nn2n1 [Compound 446] | < 50 nM | ≥ 7.00 |
| Cc1cc(C(F)(F)F)cc(O)c1-c1ccc2oc(N3CCN(S(=O)(=O)C4CC4)CC3)nc2n1 [Compound 392] | < 50 nM | ≥ 7.00 |
| Cc1cc(C(F)(F)F)cc(O)c1-c1ccc2oc(N3CCOC[C@H]3C)nc2n1 [Compound 371] | 50 to 100 nM | ≥ 7.00 |
| Cc1cc(C(F)(F)F)cc(O)c1-c1ccc2oc(NC[C@@H]3COCCN3C(=O)C3CC3)nc2n1 [Compound 257] | < 50 nM | ≥ 7.00 |
| CCS(=O)(=O)N1CCN(c2nc3nc(-c4c(C)cc(C(F)(F)F)cc4O)ccc3o2)CC1 [Compound 388] | 50 to 100 nM | ≥ 7.00 |
| CC(=O)NC[C@@H]1COCCN1c1nc2nc(-c3c(C)cc(C(F)(F)F)cc3O)cc(C)n2n1 [Compound 441] | < 50 nM | ≥ 7.00 |
| Cc1cc(C(F)(F)F)cc(O)c1-c1ccc2oc(N[C@@H]3CCCN(CCO)C3)nc2n1 [Compound 404] | < 50 nM | ≥ 7.00 |
| Cc1cc(C(F)(F)F)cc(O)c1-c1ccc2oc(N[C@@H]3CCCN(C(C)C)C3)nc2n1 [Compound 400] | < 50 nM | ≥ 7.00 |
| CCN1CCC[C@H](Nc2nc3nc(-c4c(C)cc(C(F)(F)F)cc4O)cc(C)n3n2)C1 [Compound 462] | < 50 nM | ≥ 7.00 |
| CC(=O)NC[C@@H]1COCCN1c1nc2c(C)cc(-c3c(C)cc(C(F)(F)F)cc3O)nn2n1 [Compound 442] | < 50 nM | ≥ 7.00 |
| CCN1CCC[C@@H](Nc2nc3c(C)cc(-c4c(C)cc(C(F)(F)F)cc4O)nn3n2)C1 [Compound 447] | < 50 nM | ≥ 7.00 |
| Cc1cc(C(F)(F)F)cc(O)c1-c1ccc2[nH]c(NCC(C)(C)O)nc2n1 [Compound 6] | 100 to 500 nM |  |
| Cc1cc(C(F)(F)F)cc(O)c1-c1cc(C)n2nc(N[C@@H]3CCCN(C)C3)nc2n1 [Compound 443] | < 50 nM | ≥ 7.00 |

| SMILES | IC50 [1] | pIC50 [2] |
| --- | --- | --- |
| Cc1cc(C(F)(F)F)cc(O)c1-c1cc(C)c2nc(N3CCOCC3)nn2n1 [Compound 424] | < 50 nM | ≥ 7.00 |
| Cc1cc(Cl)cc(O)c1-c1ccc2oc(N3CCS(=O)(=O)CC3)nc2n1 [Compound 387] | 50 to 100 nM | ≥ 7.00 |
| Cc1cc(C(F)(F)F)cc(O)c1-c1ccc2oc(N3CC4CCC(C3)O4)nc2n1 [Compound 381] | 100 to 500 nM | ≥ 7.00 |
| CCN1CCC[C@@H](Nc2nc3nc(-c4c(C)cc(C(F)(F)F)cc4O)ccn3n2)C1 [Compound 448] | < 50 nM | ≥ 7.00 |
| Cc1cc(C(F)(F)F)cc(O)c1-c1ccc2oc(NC[C@@H]3COCCN3S(=O)(=O)C3CC3)nc2n1 [Compound 260] | < 50 nM | ≥ 7.00 |
| Cc1cc(C(F)(F)F)cc(O)c1-c1cc(C)c2nc(N[C@@H]3CCCN(CCO)C3)nn2n1 [Compound 456] | < 50 nM | ≥ 7.00 |
| Cc1cc(C(F)(F)F)cc(O)c1-c1ccc2nc(N[C@@H]3CCCN(C)C3)nn2n1 [Compound 445] | < 50 nM | ≥ 7.00 |
| Cc1cc(C(F)(F)F)cc(O)c1-c1ccc2nc(N3CCS(=O)(=O)CC3)nn2n1 [Compound 422] | 100 to 500 nM | ≥ 7.00 |
| Cc1cc(C(F)(F)F)cc(O)c1-c1ccc2oc(N)nc2n1 [Compound 14] | 50 to 100 nM | ≥ 7.00 |
| Cc1cc(C(F)(F)F)cc(O)c1-c1ccc2oc(NC[C@@H]3COCCN3C(=O)C(F)F)nc2n1 [Compound 249] | 100 to 500 nM | ≥ 7.00 |
| CCN1CCCC(c2nc3nc(-c4c(C)cc(C(F)(F)F)cc4O)ccc3[nH]2)C1 (stereo not drawn) [Compound 10] | 100 to 500 nM | ≥ 7.00 |
| Cc1cc(C(F)(F)F)cc(O)c1-c1cc(C)n2nc(N[C@H]3CCCN(CCO)C3)nc2n1 [Compound 460] | < 50 nM | ≥ 7.00 |
| CC(=O)N1CCOC[C@H]1CNc1nc2nc(-c3c(C)cc(Cl)cc3O)ccc2o1 [Compound 253] | < 50 nM | ≥ 7.00 |
| Cc1cc(C(F)(F)F)cc(O)c1-c1ccc2oc(NC[C@@H](C)O)nc2n1 [Compound 413] | 50 to 100 nM | ≥ 7.00 |
| CC(=O)N1CCOC[C@H]1CNc1nc2nc(-c3c(C)cc(C(F)(F)F)cc3O)cc(C)c2o1 [Compound 451] | 50 to 100 nM | ≥ 7.00 |
| CCN1CCC[C@@H](Nc2nc3ccc(-c4c(C)cc(C(F)(F)F)cc4O)nn3n2)C1 [Compound 439] | < 50 nM | ≥ 7.00 |
| Cc1cc(C(F)(F)F)cc(O)c1-c1ccc2oc(NC[C@@H]3COCCN3C(=O)C(C)C)nc2n1 [Compound 248] | 100 to 500 nM | ≥ 7.00 |
| Cc1cc(C(F)(F)F)cc(O)c1-c1ccc2oc(N3CCN(S(C)(=O)=O)CC3)nc2n1 [Compound 390] | < 50 nM | ≥ 7.00 |
| CCN1C[C@H](F)C[C@@H](Nc2nc3nc(-c4c(C)cc(C(F)(F)F)cc4O)ccc3o2)C1 [Compound 397] | 100 to 500 nM | ≥ 7.00 |
| Cc1cc(C(F)(F)F)cc(O)c1-c1ccc2[nH]c(C3CCCNC3)nc2n1 (stereo not drawn) [Compound 9] | 50 to 100 nM | ≥ 7.00 |
| CCS(=O)(=O)N1CCN(c2nc3nc(-c4c(C)cc(C)cc4O)ccc3o2)CC1 [Compound 391] |  | ≥ 7.00 |
| Cc1cc(C(F)(F)F)cc(O)c1-c1cc2ccn(C3CCS(=O)(=O)C3)c2nn1 (stereo not drawn) [Compound 123] |  | 6.00 to 6.30 |
| Cc1cc(C(F)(F)F)cc(O)c1-c1ccc2ccc(N)nc2n1 [Compound 7] |  | 6.30 to 7.00 |
| Cc1cc(C(F)(F)F)cc(O)c1-c1ccc2nc(N)nn2n1 [Compound 13] |  | 6.00 to 6.30 |
| Cc1cc(C(F)(F)F)cc(O)c1-c1ccc2oc(N3CCO[C@H](C)C3)nc2n1 [Compound 374] |  | ≥ 7.00 |
